Measured values: patent US9085555B2, “Complement pathway modulators and uses thereof” (priority 2011, dated 2015)

The compounds below were run against Factor D (Homo sapiens (Human), UniProt P00746) (assay: biochemical). Settings: read-out: IC50.
Type: biochemical

Factor D, sequence (P00746 26-253): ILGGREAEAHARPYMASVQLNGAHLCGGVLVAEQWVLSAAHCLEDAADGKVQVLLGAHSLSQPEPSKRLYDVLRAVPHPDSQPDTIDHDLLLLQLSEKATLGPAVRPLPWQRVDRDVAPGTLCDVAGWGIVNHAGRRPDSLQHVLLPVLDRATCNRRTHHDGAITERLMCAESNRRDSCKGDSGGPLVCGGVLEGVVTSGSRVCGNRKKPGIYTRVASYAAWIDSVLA

Structure (SMILES)	IC50
NC(=O)n1cc(NC(=O)N2CC(F)(F)C[C@H]2C(=O)NCc2cccc(Cl)c2F)c2ccccc21 [Example 301, (S)-4,4-Difluoro-pyrrolidine-1,2-dicarboxylic acid 1-[(1-carbamoyl-1H-indol-3-yl)-amide] 2-(3-chloro-2-fluoro-benzylamide)]	95 nM
CC1(C)CC[C@@H](C(=O)NCc2cccc(Cl)c2F)N1C(=O)Nc1cn(C(N)=O)c2ccccc12 [Example 302, (S)-5,5-Dimethyl-pyrrolidine-1,2-dicarboxylic acid 1-[(1-carbamoyl-1H-indol-3-yl)-amide] 2-(3-chloro-2-fluoro-benzylamide)]	75 nM
COCCOc1ccc2c(c1)c(NC(=O)N1C[C@H](F)C[C@H]1C(=O)NCc1cccc(Cl)c1F)cn2C(N)=O [Example 303, (2S,4R)-4-Fluoro-pyrrolidine-1,2-dicarboxylic acid 1-{[1-carbamoyl-5-(2-methoxy-ethoxy)-1H-indol-3-yl]-amide} 2-(3-chloro-2-fluoro-benzylamide)]	8 nM
Cc1ccnc(CNC(=O)[C@@H]2C[C@@H](F)CN2C(=O)Nc2cn(C(N)=O)c3ccccc23)c1F [Example 304, (2S,4R)-4-Fluoro-pyrrolidine-1,2-dicarboxylic acid 1-[(1-carbamoyl-1H-indol-3-yl)-amide] 2-[(3-fluoro-4-methyl-pyridin-2-ylmethyl)-amide]]	653 nM
NC(=O)n1cc(NC(=O)N2C[C@H](F)C[C@H]2C(=O)NCc2cncc(C(F)(F)F)c2)c2ccccc21 [Example 305, (2S,4R)-4-Fluoro-pyrrolidine-1,2-dicarboxylic acid 1-[(1-carbamoyl-1H-indol-3-yl)-amide] 2-[(5-trifluoromethyl-pyridin-3-ylmethyl)-amide]]	1350 nM
CCOC(=O)Cc1ccc2c(c1)c(NC(=O)N1[C@@H]3C[C@@H]3C[C@H]1C(=O)NCc1cccc(Cl)c1F)cn2C(N)=O [Example 306, (1-carbamoyl-3-{[(1R,3S,5R)-3-(3-chloro-2-fluoro-benzylcarbamoyl)-2-aza-bicyclo[3.1.0]hexane-2-carbonyl]-amino}-1H-indol-5-yl)-acetic acid ethyl ester]	4 nM
NC(=O)n1cc(NC(=O)N2CCC3C[C@@]32C(=O)Nc2cccc(OC(F)(F)F)c2)c2ccccc21 (stereo partly drawn) [Example 307, (1S,5R)-2-Aza-bicyclo[3.1.0]hexane-1,2-dicarboxylic acid 2-[(1-carbamoyl-1H-indol-3-yl)-amide] 1-[(3-trifluoromethoxy-phenyl)-amide]]	13300 nM
NC(=O)n1cc(NC(=O)N2C[C@H](F)C[C@H]2C(=O)NCc2cccc(Cl)c2F)c2ccc(OC(F)F)cc21 [Example 308, (2S,4R)-4-Fluoro-pyrrolidine-1,2-dicarboxylic acid 1-[(1-carbamoyl-6-difluoromethoxy-1H-indol-3-yl)-amide] 2-(3-chloro-2-fluoro-benzylamide)]	127 nM
COc1cc(NC(=O)[C@@H]2C[C@@H](F)CN2C(=O)Nc2cn(C(N)=O)c3ccccc23)ccn1 [Example 309, (2S,4R)-4-Fluoro-pyrrolidine-1,2-dicarboxylic acid 1-[(1-carbamoyl-1H-indol-3-yl)-amide] 2-[(2-methoxy-pyridin-4-yl)-amide]]	550 nM
NC(=O)n1cc(NC(=O)N2CCS[C@H]2C(=O)Nc2cncc(Cl)c2)c2ccccc21 [Example 310, (S)-Thiazolidine-2,3-dicarboxylic acid 3-[(1-carbamoyl-1H-indol-3-yl)-amide] 2-[(5-chloro-pyridin-3-yl)-amide]]	475 nM
C=CCOc1ccc2c(NC(=O)N3C4CC4C[C@H]3C(=O)NCc3cccc(Cl)c3F)cn(C(N)=O)c2c1 (stereo partly drawn) [Example 311, (1R,3S,5R)-2-Aza-bicyclo[3.1.0]hexane-2,3-dicarboxylic acid 2-[(6-allyloxy-1-carbamoyl-1H-indol-3-yl)-amide] 3-(3-chloro-2-fluoro-benzylamide)]	70 nM
NC(=O)n1cc(NC(=O)N2C[C@@H](CO)C[C@H]2C(=O)NCc2cccc(Cl)c2F)c2ccccc21 [Example 312, (2S,4S)-4-Hydroxymethyl-pyrrolidine-1,2-dicarboxylic acid 1-[(1-carbamoyl-1H-indol-3-yl)-amide] 2-(3-chloro-2-fluoro-benzylamide)]	115 nM
NC(=O)n1cc(NC(=O)N2CCC[C@H]2C(=O)Nc2cccc(OC(F)(F)F)c2)c2ccc(OCc3ccccc3)cc21 [Example 313, (S)-Pyrrolidine-1,2-dicarboxylic acid 1-[(6-benzyloxy-1-carbamoyl-1H-indol-3-yl)-amide]2-[(3-trifluoromethoxy-phenyl)-amide]]	1300 nM
CN(C)C[C@@H](NC(=O)[C@@H]1C[C@H]2C[C@H]2N1C(=O)Nc1cn(C(N)=O)c2ccccc12)c1cccc(Cl)c1F [Example 314, (1R,3S,5R)-2-Aza-bicyclo[3.1.0]hexane-2,3-dicarboxylic acid 2-[(1-carbamoyl-1H-indol-3-yl)-amide] 3-{[(S)-1-(3-chloro-2-fluoro-phenyl)-2-dimethylamino-ethyl]-amide}]	20 nM
CCOC(=O)Cc1ccc2c(NC(=O)N3[C@@H]4C[C@@H]4C[C@H]3C(=O)NCc3cccc(Cl)c3F)cn(C(N)=O)c2c1 [Example 315, (1-carbamoyl-3-{[(1R,3S,5R)-3-(3-chloro-2-fluoro-benzylcarbamoyl)-2-aza-bicyclo[3.1.0]hexane-2-carbonyl]-amino}-1H-indol-6-yl)-acetic acid ethyl ester]	13 nM
CO[C@@H]1C[C@@H](C(=O)Nc2cccc(OC(F)(F)F)c2)N(C(=O)Nc2cn(C(N)=O)c3ccccc23)C1 [Example 316, (2S,4R)-4-Methoxy-pyrrolidine-1,2-dicarboxylic acid 1-[(1-carbamoyl-1H-indol-3-yl)-amide] 2-[(3-trifluoromethoxy-phenyl)-amide]]	3100 nM
CC(C)(C)c1cc(NC(=O)[C@@H]2C[C@@H](F)CN2C(=O)Nc2cn(C(N)=O)c3ccccc23)ccn1 [Example 317, (2S,4R)-4-Fluoro-pyrrolidine-1,2-dicarboxylic acid 2-[(2-tert-butyl-pyridin-4-yl)-amide] 1-[(1-carbamoyl-1H-indol-3-yl)-amide]]	2800 nM
COC(=O)COc1ccc2c(c1)c(NC(=O)N1C[C@](C)(F)C[C@H]1C(=O)NCc1cccc(Cl)c1F)cn2C(N)=O [Example 318, (1-carbamoyl-3-{[(2S,4R)-2-(3-chloro-2-fluoro-benzylcarbamoyl)-4-fluoro-4-methyl-pyrrolidine-1-carbonyl]amino}-1H-indol-5-yloxy)-acetic acid methyl ester]	3 nM
NC(=O)n1cc(NC(=O)N2C[C@H](F)C[C@H]2C(=O)N[C@H](c2cccc(Cl)c2)C(F)(F)F)c2ccccc21 [Example 319, (2S,4R)-4-Fluoro-pyrrolidine-1,2-dicarboxylic acid 1-[(1-carbamoyl-1H-indol-3-yl)-amide] 2-{[(R)-1-(3-chloro-phenyl)-2,2,2-trifluoro-ethyl]-amide}]	548 nM
NC(=O)n1cc(NC(=O)N2[C@@H]3C[C@@H]3C[C@H]2C(=O)N[C@H](CO)c2cccc(Cl)c2)c2ccccc21 [Example 320, (1R,3S,5R)-2-Aza-bicyclo[3.1.0]hexane-2,3-dicarboxylic acid 2-[(1-carbamoyl-1H-indol-3-yl)-amide] 3-{[(S)-1-(3-chloro-phenyl)-2-hydroxy-ethyl]-amide}]	7 nM
NC(=O)n1cc(NC(=O)N2CCS[C@H]2C(=O)Nc2cncc(Br)c2)c2ccccc21 [Example 321, (S)-Thiazolidine-2,3-dicarboxylic acid 3-[(1-carbamoyl-1H-indol-3-yl)-amide] 2-[(5-bromo-pyridin-3-yl)-amide]]	85 nM
CN1CCN(C(=O)c2cc(Cl)c(F)c(CNC(=O)[C@@H]3C[C@@H](F)CN3C(=O)Nc3cn(C(N)=O)c4ccccc34)c2)CC1 [Example 322, (2S,4R)-4-Fluoro-pyrrolidine-1,2-dicarboxylic acid 1-[(1-carbamoyl-1H-indol-3-yl)-amide] 2-[3-chloro-2-fluoro-5-(4-methyl-piperazine-1-carbonyl)-benzylamide]]	348 nM
NC(=O)n1cc(NC(=O)N2C[C@H](F)C[C@H]2C(=O)Nc2ccncc2F)c2ccccc21 [Example 323, (2S,4R)-4-Fluoro-pyrrolidine-1,2-dicarboxylic acid 1-[(1-carbamoyl-1H-indol-3-yl)-amide] 2-[(3-fluoro-pyridin-4-yl)-amide]]	902 nM
NC(=O)c1cccc(NC(=O)[C@@H]2CCCN2C(=O)Nc2cn(C(N)=O)c3ccccc23)c1 [Example 324, (S)-Pyrrolidine-1,2-dicarboxylic acid 1-[(1-carbamoyl-1H-indol-3-yl)-amino] 2-[(3-carbamoyl-phenyl)-amide]]	4250 nM
CS(=O)(=O)c1cccc(NC(=O)[C@@H]2CCCN2C(=O)Nc2cn(C(N)=O)c3ccccc23)c1 [Example 325, (S)-Pyrrolidine-1,2-dicarboxylic acid 1-[(1-carbamoyl-1H-indol-3-yl)-amide] 2-[(3-methanesulfonyl-phenyl)-amide]]	2250 nM
NC(=O)n1cc(NC(=O)N2C[C@H](F)C[C@H]2C(=O)Nc2ncccc2F)c2ccccc21 [Example 327, (2S,4R)-4-Fluoro-pyrrolidine-1,2-dicarboxylic acid 1-[(1-carbamoyl-1H-indol-3-yl)-amide] 2-[(3-fluoro-pyridin-2-yl)-amide]]	1700 nM
CN(C)CCN(C)c1cc(Cl)c(F)c(CNC(=O)[C@@H]2C[C@@H](F)CN2C(=O)Nc2cn(C(N)=O)c3ccccc23)c1 [Example 329, (2S,4R)-4-Fluoro-pyrrolidine-1,2-dicarboxylic acid 1-[(1-carbamoyl-1H-indol-3-yl)-amide] 2-{3-chloro-5-[(2-dimethylamino-ethyl)-methyl-amino]-2-fluoro-benzylamide}]	181 nM
CC(C)(C)c1cccc(NC(=O)[C@@H]2CC3CC3N2C(=O)Nc2cn(C(N)=O)c3ccccc23)c1 (stereo partly drawn) [Example 330, (1R,3S,5R)-2-Aza-bicyclo[3.1.0]hexane-2,3-dicarboxylic acid 3-[(3-tert-butyl-phenyl)-amide] 2-[(1-carbamoyl-1H-indol-3-yl)-amide]]	250 nM
NC(=O)n1cc(NC(=O)N2C[C@@H](O)C[C@H]2C(=O)NCc2cccc(Cl)c2F)c2ccccc21 [Example 331, (2S,4S)-4-Hydroxy-pyrrolidine-1,2-dicarboxylic acid 1-[(1-carbamoyl-1H-indol-3-yl)-amide] 2-(3-chloro-2-fluoro-benzylamide)]	35 nM
